Test results as given in patent US20260070921A1, “COMPOUND, ENDOPLASMIC RETICULUM STRESS INHIBITOR, PHARMACEUTICAL PRODUCT, OPHTHALMIC AGENT, EYE DROPS, COMPOSITION, AND METHOD FOR PRODUCING COMPOUND” (KYOTO UNIVERSITY, priority 2022, published 2026).
pEC50: −log10 of the molar value.

Legend:
CHOP = assay: Quantitative RT-PCR of ER stress-related genes, CHOP; format: cell-based; conditions: pretreatment 10 h, tunicamycin 1.0 μg/mL 24 h
Method: First, total RNA was isolated using ISOGEN (tradename of Nippon Gene Co., Ltd.). cDNA was prepared using a Prime Script (trade name) first-strand cDNA synthesis kit (TaKaRa). qRT-PCR was performed with Fast SYBR Green Master Mix (Thermo Fisher) on a QuantStudio 3 real-time PCR system (Thermo Fisher). The copy number of each transcript is expressed relative to β-actin. The sequences of the primers (forward and reverse) are as follows: […]
The ability to alleviate endoplasmic reticulum (ER) stress of compound 1 was examined in HEK293 cells. FIGS. 1 and 2 show the biological activity of compound 1 for decreasing cytotoxicity under ER stress. […] Error bars represent s.d. (n=3). Statistical analysis was performed according to one-way ANOVA and a Dunnett's test using R software. […] To further study the effect of compound 1 on ER stress, mRNA levels of typical UPR genes, such as ATF4, s-XPB1, CHOP, BiP, and ERDJ4, were examined. In addition to compound 1, compound 6 was also tested in the same experiment. […] The quantitative RT-PCR was performed according to the method described above. HEK293 cells were treated with compound 1 (100 μM) for 10 hours and then incubated with tunicamycin (1.0 μg/mL) for 24 hours. Isolated RNA samples were subjected to reverse transcription and quantitative RT-PCR. […]

[1] = Dynamic light scattering (DLS) of self-assemblies; format: physicochemical
Text: In the graphs on the left, the vertical axis “Z-ave. (nm)” represents the average particle size. In the graphs on the right, the vertical axis “Derived Count Rate (kcps)” represents the derived count rate. The horizontal axis represents the molar concentration (PM) of PBS (pH of 7.4) and DMEM (10% FBS). Error bars represent s.d. (n=3).
“Z-ave.” represents the average size of particles. Error bars represent s.d. (n=3).
“Z-average” represents the average size of particles. Error bars represent s.d. (n=3).

HEK293 cells [2] = assay: Tunicamycin assay using an autophagy or proteasome inhibitor; format: cell-based; conditions: pre-incubation 16 h, tunicamycin 5.0 μg/mL 48 h
Method: Cellular protein aggregates are often cleared by cellular mechanisms, such as autophagy and ubiquitin-proteasome system. To examine the importance of these proteolytic pathways in the activity of compounds 1 and 6, their ability to inhibit tunicamycin-induced cytotoxicity in the presence of an autophagy or proteasome inhibitor (bafilomycin A1 or MG132, respectively) was measured. FIG. 9 is a graph showing the results of a tunicamycin assay using an autophagy or proteasome inhibitor. Cells were pre-incubated with compound 1 or compound 6 for 16 hours and then treated with tunicamycin (5.0 μg/mL) in the presence or absence of a specified substance for 48 hours. FIG. 9(A) is a graph showing measurements in the presence or absence of bafilomycin A1 (Baf A1, autophagy inhibitor). FIG. 9(B) is a graph showing measurements in the presence or absence of MG132 (proteasome inhibitor). Error bars represent s.d. (n=3). Statistical analysis was performed according to the one-way ANOVA and Dunnett's test. *P<0.05; n.s.: not significant. […] The concentrations used of the inhibitors were confirmed to be non-toxic to cells (FIGS. 31 and 32). To further study the role of autophagy, autophagy-deficient atg7^−/− and p62^−/− mouse embryonic fibroblasts (MEFs) were subjected to a tunicamycin assay. FIG. 10 is a graph showing the results of the tunicamycin assay using the autophagy-deficient cells. Wild-type (wt), atg7^−/−, or p62^−/− mouse embryonic fibroblasts (MEFs) were treated with molecule 1 (100 μM) or molecule 6 (25 μM) for 18 hours and then incubated with tunicamycin (5.0 μg/mL) for 48 hours. Error bars represent s.d. (n=3). Statistical analysis was performed according to the one-way ANOVA and Dunnett's test. *P<0.05, **P<0.01. ATG7 is an E1-like enzyme important for phagophore expansion, and p62 is an autophagy receptor for ubiquitinated substrates (Reference Material 20 below). Wild-type (wt), atg7^−/−, or p62^−/− MEF cells were treated with compound 1 or compound 6 for 18 hours, followed by treatment with tunicamycin (5.0 μg/mL) for 48 hours. […] Nat Rev Mol Cell Bio 2018, 19 (6), 349-364. https://doi.org/10.1038/s41580-018-0003-4.

HEK293 cells [3] = assay: Tunicamycin assay (cell viability under ER stress, WST-8); format: cell-based; set-up: key to Efficacy 5 μM (ER stress inhibition activity) / Efficacy 25 μM (ER stress inhibition activity) / Efficacy 100 μM (ER stress inhibition activity): “−” indicates no activity; “+” indicates weak activity; “++” indicates strong activity; conditions: for pEC50: Homo sapiens, HEK293, read-out: EC50 (dose-response curve, Hill equation); for pEC50 / Concentration at which activity was shown: tunicamycin 5.0 μg/mL 48 h
Method: HEK293 cells were seeded in 96-well plates ([…]) and incubated at 37° C. for 2 hours. The medium was then replaced with 100 μL of DMEM ([…]) containing self-assembling chemicals (20 or more compounds, including compounds of the present disclosure) and 1% DMSO. After incubation with any one of compounds 1 to 6 at a given concentration for 12 to 18 hours, HEK293 cells were treated with tunicamycin (5 μg/mL) or thapsigargin (10 μM) for 48 hours, and cell viability was measured using a WST-8 cell counting kit (Dojindo Laboratories).
Produced compounds XD8 to XD28 were subjected to a tunicamycin assay in the same manner as in Examples 1 to 9. Specifically, HEK293 cells were first seeded in a 96-well plate (1×10^4 cells/well) and incubated at 37° C. for 2 hours. The medium was then replaced with 100 μL of DMEM (10% FBS) containing a self-assembling chemical (each of compounds XD8 to XD28) and […]. After incubation with any of compounds XD8 to XD28 at a concentration of 5.0 μM, 25 μM, or 100 μM for 12 to 18 hours, HEK293 cells were treated with tunicamycin (5 μg/mL) for 48 hours, followed by measuring cell viability by using a WST-8 cell counting kit (Dojindo Laboratories).

Row | SMILES | Increase in CHOP mRNA levels (CHOP) | Average size of the assemblies (diameter) ([1]; cell culture medium, 25 μM) | Activity in the presence of MG132 (HEK293 cells [2]) | Activity in the presence of bafilomycin A1 (HEK293 cells [2]) | pEC50 (HEK293 cells [3]) | Efficacy 5 μM (ER stress inhibition activity) (HEK293 cells [3]; compound 5 μM 12 to 18 h, then tunicamycin 5 μg/mL 48 h) | Efficacy 25 μM (ER stress inhibition activity) (HEK293 cells [3]; compound 25 μM 12 to 18 h, then tunicamycin 5 μg/mL 48 h) | Efficacy 100 μM (ER stress inhibition activity) (HEK293 cells [3]; compound 100 μM 12 to 18 h, then tunicamycin 5 μg/mL 48 h) | Concentration at which activity was shown (HEK293 cells [3]) | Average size of the assemblies (diameter) ([1]; DMEM (10% FBS), 100 μM) | Average size of the assemblies (diameter) ([1]; PBS (pH of 7.4), 100 μM) | Cell viability under ER stress (HEK293 cells [3]; 100 μM pre-incubation 12 h, then thapsigargin 10 μM or tunicamycin 5.0 μg/mL 48 h)
1 | COc1ccc2c(c1)sc1c(=O)nc3nc(Nc4ccc(S(N)(=O)=O)cc4)ccn3c12 [compound 6] | completely suppressed | 130 nm | no significant effect | partially canceled | 4.86 | − | ++ | ++ | 25 µM |  |  | 
2 | NS(=O)(=O)c1ccc(Nc2ccn3c(n2)nc(=O)c2sc4cc(F)ccc4c23)cc1 [compound 1] | completely suppressed |  | no significant effect | partially canceled | 4.42 |  |  |  | 100 µM | ~200 nm | about 700 nm | enhanced cell viability under ER stress conditions
